Patent US20050250677A1, “Glycopeptide antibiotic derivatives” (priority 2002, published 2005)
Where two headings read alike, the source gives them in different places.

What was measured:
HIV-1 (IIIB) = assay: Inhibition of HIV-1 (IIIB)-induced cytopathicity (giant cell formation) in CEM cells; assay type: cell-based; settings: read-out: EC50 HIV-1 (concentration required to inhibit HIV-induced giant cell formation by 50%); HIV-1, CEM cell cultures
Protocol: (§1) A variety of glycopeptide antibiotic derivatives of vancomycin, eremomycin and teicoplanin including their aglycon derivatives were evaluated for their inhibitory activity against HIV-1 (IIIB) and HIV-2(ROD) in CEM cell cultures.

FCV = assay: Feline corona virus assay in Feline Crandel kidney cells (MTS); assay type: cell-based; settings: for EC50: FCV in FCK cells, read-out: EC50 FCV
Protocol: Feline Crandel kidney cells were seeded in 96-well microtiter plates at 24,000 cells/well. Then, 24 hrs later, an appropriate inoculum of FCV is added together with 5-fold dilutions of the test compounds. After 4 days, a MTS/PMS solution was added to each well. Following a 90 min incubation period at 37° C., the optical density of the wells was read at 498 nm in a microplate reader.

human lymphocyte CEM = assay: Cytostatic activity assay, CEM cells; assay type: cell-based; settings: read-out: IC50 CEM (compound concentration required to inhibit tumor cell proliferation by 50%)
[1] = test system: human lymphocyte Molt4/clone 8; assay: Cytostatic activity assay, Molt4/clone 8 cells; assay type: cell-based; settings: read-out: IC50 Molt4/C8 (compound concentration required to inhibit tumor cell proliferation by 50%)
murine leukemia L1210 = assay: Cytostatic activity assay, L1210 cells; assay type: cell-based; settings: read-out: IC50 L1210 (compound concentration required to inhibit tumor cell proliferation by 50%)
HIV-2(ROD) = assay: Inhibition of HIV-2 (ROD)-induced cytopathicity (giant cell formation) in CEM cells; assay type: cell-based; settings: read-out: EC50 HIV-2 (concentration required to inhibit HIV-induced giant cell formation by 50%); HIV-2, CEM cell cultures
Protocol: as §1

FCK cells = settings: read-out: CC50 FCK; FCK cells
VZV (wild-type strains) = assay: Anti-VZV assay (wild-type strains): virus-induced cytopathicity in HEL cell cultures; assay type: cell-based, varicella-zoster virus; settings: HEL cell cultures
HEL cells [2] = settings: anti-VZV table
HEL cells [3] = settings: read-out: CC50 (HEL); HEL cells; anti-VZV table
[4] = VZV strain OKA, read-out: EC50 VZV (OKA)
[5] = VZV strain YS, read-out: EC50 VZV (YS)

Row | SMILES | EC50 (HIV-1 (IIIB)) [µM] | EC50 (FCV) [µM] | IC50 (human lymphocyte CEM) [µM] | IC50 [1] [µM] | IC50 (murine leukemia L1210) [µM] | EC50 (HIV-2(ROD)) [µM] | CC50 (FCK cells) [µM] | activity against FCV (FCV) | EC50 (VZV (wild-type strains); [4]) [µM] | EC50 (VZV (wild-type strains); [5]) [µM] | MTC (HEL) (HEL cells [2]) | CC50 (HEL cells [3]) [µM]
1 | CCCCc1ccc(CNCc2c(O)cc3c(c2O)-c2cc(ccc2O)C2NC(=O)C4NC(=O)C5NC(=O)C(Cc6ccc(c(Cl)c6)Oc6cc4cc(c6O)Oc4ccc(cc4Cl)C(O)C(NC2=O)C(=O)NC3C(=O)NC)NC(=O)C(NC(=O)OC(C)(C)C)c2ccc(O)c(c2)Oc2cc(O)cc5c2)cc1 (stereo not drawn) [Compound 47] | 6 ± 1 | 16 | > 100 | > 100 | 70 ± 23 | 12 ± 5.2 | > 50 |  |  |  |  | 
2 | CNC(CC(C)C)C(=O)NC1C(=O)NC(CC(N)=O)C(=O)NC2C(=O)NC3C(=O)NC(C(=O)NC(C(=O)N4CCC5CCCCC5C4)c4cc(O)cc(O)c4-c4cc3ccc4O)C(O)c3ccc(cc3)Oc3cc2cc(c3O)Oc2ccc(cc2Cl)C1O (stereo not drawn) [Compound 101] | 63.3 ± 53.5 | 47 | > 250 | > 250 | > 250 | > 125 | > 100 | pronounced activity |  |  |  | 
3 | CNC(CC(C)C)C(=O)NC1C(=O)NC(CC(N)=O)C(=O)NC2C(=O)NC3C(=O)NC(C(=O)NC(C(=O)NCc4ccc(F)cc4)c4cc(O)cc(O)c4-c4cc3ccc4O)C(O)c3ccc(cc3)Oc3cc2cc(c3O)Oc2ccc(cc2Cl)C1O (stereo not drawn) [Compound 100] | 41.7 ± 20.2 | 20 | > 250 | > 250 | > 250 | > 125 | > 100 | pronounced activity |  |  |  | 
4 | NC(=O)CC1NC(=O)C(N)C(O)c2ccc(c(Cl)c2)Oc2cc3cc(c2O)Oc2ccc(cc2)C(O)C2NC(=O)C(NC(=O)C3NC1=O)c1ccc(O)c(c1)-c1c(O)cc(O)cc1C(C(=O)N1CCC3CCCCC3C1)NC2=O (stereo not drawn) [Compound 108] | 2.8 | 81 |  |  |  | 2 | > 300 |  |  |  |  | 
5 | CCCCc1ccc(CNC2C(Oc3c4cc5cc3Oc3ccc(cc3Cl)C(O)C3NC(=O)C(NC(=O)C5NC(=O)C5NC(=O)C(Cc6ccc(cc6)O4)NC(=O)C(NC)c4ccc(O)c(c4)Oc4cc(O)c(Cl)c5c4)c4ccc(O)c(c4)-c4c(cc(O)c(CN5CCN(Cc6ccc(-c7ccccc7)cc6)CC5)c4O)C(C(=O)NCCCN(C)C)NC3=O)OC(C(=O)NCCCN(C)C)C(O)C2O)cc1 (stereo not drawn) [Compound 13] | 3.5 ± 2.1 | 5.9 | 212 ± 54 | 35 ± 6.1 | 25 ± 0.7 | 20 | 30 | pronounced activity |  |  |  | 
6 | NC1C(=O)NC2Cc3ccc(c(Cl)c3)Oc3cc4cc(c3O)Oc3ccc(cc3Cl)C(O)C3NC(=O)C(NC(=O)C4NC(=O)C(NC2=O)c2cc(O)cc(c2)Oc2cc1ccc2O)c1ccc(O)c(c1)-c1c(cc(O)c(CNC2C4CC5CC(C4)CC2C5)c1O)C(C(=O)NC1C2CC4CC(C2)CC1C4)NC3=O (stereo not drawn) [Compound 52] | 2.5 ± 0.7 | 14 | > 250 | > 250 | 202 ± 68 | 3.5 ± 2.1 | > 50 |  |  |  |  | 
7 | CCCCCCCCCCCCCCCCCCNCc1c(O)cc2c(c1O)-c1cc(ccc1O)C1NC(=O)C3NC(=O)C(CC(N)=O)NC(=O)C(NC(=O)C(CC(C)C)NC)C(O)c4ccc(c(Cl)c4)Oc4cc3cc(c4OC3OC(CO)C(O)C(O)C3OC3CC(C)(N)C(O)C(C)O3)Oc3ccc(cc3)C(OC3CC(C)(N)C(O)C(C)O3)C(NC1=O)C(=O)NC2C(=O)O (stereo not drawn) [Compound 63] |  | 3.4 |  |  |  |  | 15 | active |  |  |  | 
8 | CNC(CC(C)C)C(=O)NC1C(=O)NC(CC(N)=O)C(=O)NC2C(=O)NC3C(=O)NC(C(=O)NC(C(=O)NCC45CC6CC(CC(C6)C4)C5)c4cc(O)cc(O)c4-c4cc3ccc4O)C(O)c3ccc(cc3)Oc3cc2cc(c3O)Oc2ccc(cc2Cl)C1O (stereo not drawn) [Compound 99] | 1.6 ± 0.36 | 23 | 148 ± 3 | 126 ± 11 | 94 ± 15 | 7 | ≥ 100 | pronounced activity |  |  |  | 
9 | NC(=O)CC1NC(=O)C(NC(=O)C(N)Cc2c[nH]c3ccccc23)C(O)c2ccc(c(Cl)c2)Oc2cc3cc(c2O)Oc2ccc(cc2)C(O)C2NC(=O)C(NC(=O)C3NC1=O)c1ccc(O)c(c1)-c1c(O)cc(O)cc1C(C(=O)O)NC2=O [Compound 109, N-(D-Trp)-(de-N-Me-D-Leu)eremomycin aglycon] | 7.3 ± 0.58 | 28 | > 250 | > 250 | > 250 | 42.5 ± 10.6 | > 100 | pronounced activity |  |  |  | 
10 | CCCCCCCCCCNCc1c(O)cc2c(c1O)-c1cc(ccc1O)C1NC(=O)C3NC(=O)C4NC(=O)C(Cc5ccc(c(Cl)c5)Oc5cc3cc(c5O)Oc3ccc(cc3Cl)C(O)C(NC1=O)C(=O)NC2C(=O)NC)NC(=O)C(NC(=O)C(N)CCCCN)c1ccc(O)c(c1)Oc1cc(O)cc4c1 (stereo not drawn) [Compound 24] | 4 |  | 46 ± 8 | 41 ± 8 | 12 ± 6 | 6 |  |  | 1.2 | 1.9 | ≧5 μM | 87
11 | CCCCCCCCCC[N+](C)(C)CCCNCc1c(O)cc2c(c1O)-c1cc(ccc1O)C1NC(=O)C3NC(=O)C4NC(=O)C(Cc5ccc(c(Cl)c5)Oc5cc3cc(c5O)Oc3ccc(cc3Cl)C(O)C(NC1=O)C(=O)NC2C(=O)O)NC(=O)C(N)c1ccc(O)c(c1)Oc1cc(O)cc4c1 (stereo not drawn) [Compound 33] | 2.2 |  | 74 ± 5 | 65 ± 1 | 51 ± 26 | 7.5 ± 0.7 |  |  | ≥ 5 | 2.4 | 5 to 50 µM | ≥ 200
12 | CCCCCCCCCCNC(=O)C1NC(=O)C2NC(=O)C(NC(=O)C3NC(=O)C4NC(=O)C(Cc5ccc(c(Cl)c5)Oc5cc3cc(c5O)Oc3ccc(cc3Cl)C2O)NC(=O)C(N)c2ccc(O)c(c2)Oc2cc(O)cc4c2)c2ccc(O)c(c2)-c2c1cc(O)c(CNCCCN(C)C)c2O (stereo not drawn) [Compound 20] | 4.5 ± 0.7 |  | 53 ± 11 | 58 ± 12 | 17 ± 9 | 44 ± 1.4 |  |  | 2 | 2.3 | ≧5-20 μM | 169
13 | CCCCCCCCCCNC(=O)C(N)CCCCNCc1c(O)cc2c(c1O)-c1cc(ccc1O)C1NC(=O)C3NC(=O)C4NC(=O)C(Cc5ccc(c(Cl)c5)Oc5cc3cc(c5O)Oc3ccc(cc3Cl)C(O)C(NC1=O)C(=O)NC2C(=O)NCCCN(C)C)NC(=O)C(N)c1ccc(O)c(c1)Oc1cc(O)cc4c1 (stereo not drawn) [Compound 16] | 3.5 ± 0.7 |  | 389 ± 99 | 76 ± 8 | 19 ± 5 | 5.5 ± 2.1 |  |  | 2.5 | 2.4 | ≧5-50 μM | 137
14 | CCCCCCCCCC[N+](C)(C)CCCNCc1c(O)cc2c(c1O)-c1cc(ccc1O)C1NC(=O)C3NC(=O)C4NC(=O)C(Cc5ccc(c(Cl)c5)Oc5cc3cc(c5O)Oc3ccc(cc3Cl)C(O)C(NC1=O)C(=O)NC2C(=O)NCCO)NC(=O)C(N)c1ccc(O)c(c1)Oc1cc(O)cc4c1 (stereo not drawn) [Compound 36] | 2.1 ± 0.14 |  | ≥ 100 | 73 ± 34 | 12 ± 0.1 | 4.2 ± 2.47 |  |  | ≥ 5 | 1.9 | ≧20-50 μM | > 200
15 | NC(=O)CC1NC(=O)C(N)C(O)c2ccc(c(Cl)c2)Oc2cc3cc(c2O)Oc2ccc(cc2)C(O)C2NC(=O)C(NC(=O)C3NC1=O)c1ccc(O)c(c1)-c1c(O)cc(O)cc1C(C(=O)NCc1ccc(F)cc1)NC2=O (stereo not drawn) [Compound 106] | 27 | 74 |  |  |  | 30 | > 300 |  |  |  |  | 
16 | CCCCCCCCCCCNC1C(=O)NC2Cc3ccc(c(Cl)c3)Oc3cc4cc(c3O)Oc3ccc(cc3Cl)C(O)C3NC(=O)C(NC(=O)C4NC(=O)C(NC2=O)c2cc(O)cc(c2)Oc2cc1ccc2O)c1ccc(O)c(c1)-c1c(O)cc(O)cc1C(C(=O)NCCCN(C)C)NC3=O (stereo not drawn) [Compound 32] | 5.5 ± 2.1 |  | 90 ± 27 | 35 ± 2 | 23 ± 7 | 12.5 ± 3.5 |  |  | ≥ 5 | 2.3 | 20 µM | 30
17 | NC(=O)CC1NC(=O)C(N)C(O)c2ccc(c(Cl)c2)Oc2cc3cc(c2O)Oc2ccc(cc2)C(O)C2NC(=O)C(NC(=O)C3NC1=O)c1ccc(O)c(c1)-c1c(O)cc(O)cc1C(C(=O)NCC13CC4CC(CC(C4)C1)C3)NC2=O (stereo not drawn) [Compound 107] | 5 | 40 |  |  |  | 3.5 | > 300 |  |  |  |  | 
